The test system of the experiment is BDF1 mice, L1210 leukemia sc, survival T/C. Description: NCI In Vivo Anticancer Drug Screen. Data for tumor model L1210 Leukemia (subcutaneous) in B6D2F1 (BDF1) mice. As to conditions: endpoint: median survival time, higher = longer survival. Here is the method:
The antitumor activity of compounds was measured in mice bearing transplantable tumors. Survival or tumor size were measured and the results are expressed as the measurement made in the treated group (T) divided by the measurement made in the vehicle treated control group (C). The tumor model used in this assay is L1210 Leukemia (subcutaneous) in B6D2F1 (BDF1) mice

Several values for one entry are separate records, joined by “and”; a condition that tells them apart may be missing. Identical values can stand only once. Inconclusive results and toxic doses are left out.

Turning to `O=c1ccn(C2OC(CO)C(O)C2O)c(=O)[nH]1` (stereo not drawn), the T/C is 100 % of control (dose: 65.0 mg/kg/injection, schedule: Q01DX Z (sc), vehicle: saline); 100 % of control (dose: 108.0 mg/kg/injection, schedule: Q01DX Z (sc), vehicle: saline); 95 % of control and 111 % of control (dose: 180.0 mg/kg/injection, schedule: Q01DX Z (sc), vehicle: saline); 90 % of control and 100 % of control (dose: 300.0 mg/kg/injection, schedule: Q01DX Z (sc), vehicle: saline); 90 % of control and 100 % of control (dose: 500.0 mg/kg/injection, schedule: Q01DX Z (sc), vehicle: saline); 100 % of control (dose: 833.0 mg/kg/injection, schedule: Q01DX Z (sc), vehicle: saline). Moreover, the T/C (dose: 1388.0 mg/kg/injection, schedule: Q01DX Z (sc), vehicle: saline) is 100 % of control.

Consider `CC[C@](O)(C(=O)O)c1cc2n(c(=O)c1CO)Cc1cc3ccccc3nc1-2`, for which the T/C (dose: 0.5 mg/kg/injection, schedule: Q01DX009 (ip), vehicle: saline) was 104 % of control; the T/C (dose: 0.5 mg/kg/injection, schedule: Q01DX009 (sc), vehicle: saline) was 104 % of control; the T/C (dose: 1.0 mg/kg/injection, schedule: Q01DX009 (ip), vehicle: saline) was 102 % of control; the T/C (dose: 1.0 mg/kg/injection, schedule: Q01DX009 (sc), vehicle: saline) is 104 % of control; the T/C (dose: 2.0 mg/kg/injection, schedule: Q01DX009 (ip), vehicle: saline) is 116 % of control; the T/C (dose: 2.0 mg/kg/injection, schedule: Q01DX009 (sc), vehicle: saline) was 110 % of control. Also, the T/C runs as follows: (dose: 6.25 mg/kg/injection, schedule: Q02DX005 (sc), vehicle: saline) 115 % of control and 120 % of control; (dose: 6.25 mg/kg/injection, schedule: Q04DX003 (sc), vehicle: saline) 115 % of control and 116 % of control; (dose: 8.4 mg/kg/injection, schedule: Q04DX003 (sc), vehicle: saline) 122 % of control and 123 % of control; (dose: 12.5 mg/kg/injection, schedule: Q02DX005 (sc), vehicle: saline) 156 % of control; (dose: 14.0 mg/kg/injection, schedule: Q07DX003 (sc), vehicle: saline) 115 % of control and 122 % of control; (dose: 18.0 mg/kg/injection, schedule: Q04DX003 (sc), vehicle: saline) 118 % of control and 120 % of control. For the same molecule, the T/C is, setting by setting: (dose: 18.0 mg/kg/injection, schedule: Q07DX003 (sc), vehicle: saline) 118 % of control and 120 % of control; (dose: 20.0 mg/kg/injection, schedule: Q07DX003 (sc), vehicle: saline) 120 % of control and 121 % of control; (dose: 23.0 mg/kg/injection, schedule: Q07DX003 (sc), vehicle: saline) 120 % of control and 122 % of control; (dose: 25.0 mg/kg/injection, schedule: Q02DX005 (sc), vehicle: saline) 165 % of control and 170 % of control; (dose: 25.0 mg/kg/injection, schedule: Q07DX003 (sc), vehicle: saline) 150 % of control and 151 % of control; (dose: 30.0 mg/kg/injection, schedule: Q04DX003 (sc), vehicle: saline) 120 % of control. Besides, the T/C by setting is: (dose: 30.0 mg/kg/injection, schedule: Q07DX003 (sc), vehicle: saline) 120 % of control and 121 % of control; (dose: 32.0 mg/kg/injection, schedule: Q07DX003 (sc), vehicle: saline) 155 % of control and 158 % of control; (dose: 39.0 mg/kg/injection, schedule: Q07DX003 (sc), vehicle: saline) 120 % of control and 122 % of control; (dose: 39.0 mg/kg/injection, schedule: Q09DX003 (sc), vehicle: saline) 116 % of control and 117 % of control; (dose: 40.0 mg/kg/injection, schedule: Q04DX003 (sc), vehicle: saline) 160 % of control and 181 % of control; (dose: 50.0 mg/kg/injection, schedule: Q01DX001 (sc), vehicle: saline) 118 % of control and 120 % of control. The T/C runs as follows: (dose: 62.0 mg/kg/injection, schedule: Q07DX003 (sc), vehicle: saline) 175 % of control and 176 % of control; (dose: 65.0 mg/kg/injection, schedule: Q07DX003 (sc), vehicle: saline) 121 % of control and 122 % of control; (dose: 65.0 mg/kg/injection, schedule: Q09DX003 (sc), vehicle: saline) 122 % of control; (dose: 78.0 mg/kg/injection, schedule: Q07DX003 (sc), vehicle: saline) 180 % of control and 181 % of control; (dose: 80.0 mg/kg/injection, schedule: Q04DX003 (sc), vehicle: saline) 115 % of control and 118 % of control; (dose: 80.0 mg/kg/injection, schedule: Q07DX003 (sc), vehicle: saline) 120 % of control and 123 % of control. Moreover, the T/C runs as follows: (dose: 83.3 mg/kg/injection, schedule: Q01DX001 (sc), vehicle: saline) 120 % of control and 121 % of control; (dose: 98.0 mg/kg/injection, schedule: Q07DX003 (sc), vehicle: saline) 118 % of control and 120 % of control; (dose: 108.0 mg/kg/injection, schedule: Q07DX003 (sc), vehicle: saline) 120 % of control and 122 % of control; (dose: 108.0 mg/kg/injection, schedule: Q09DX003 (sc), vehicle: saline) 122 % of control; (dose: 122.0 mg/kg/injection, schedule: Q07DX003 (sc), vehicle: saline) 118 % of control and 120 % of control; (dose: 148.0 mg/kg/injection, schedule: Q01DX001 (sc), vehicle: saline) 110 % of control. Moreover, the T/C by setting is: (dose: 160.0 mg/kg/injection, schedule: Q04DX003 (sc), vehicle: saline) 90 % of control and 93 % of control; (dose: 160.0 mg/kg/injection, schedule: Q07DX003 (sc), vehicle: saline) 110 % of control and 122 % of control; (dose: 180.0 mg/kg/injection, schedule: Q09DX003 (sc), vehicle: saline) 116 % of control and 118 % of control; (dose: 191.0 mg/kg/injection, schedule: Q07DX003 (sc), vehicle: saline) 150 % of control; (dose: 246.0 mg/kg/injection, schedule: Q01DX001 (sc), vehicle: saline) 110 % of control; (dose: 300.0 mg/kg/injection, schedule: Q09DX003 (sc), vehicle: saline) 100 % of control and 101 % of control. In addition, the T/C by setting is: (dose: 320.0 mg/kg/injection, schedule: Q07DX003 (sc), vehicle: saline) 90 % of control; (dose: 468.0 mg/kg/injection, schedule: Q07DX003 (sc), vehicle: saline) 120 % of control and 121 % of control; (dose: 731.0 mg/kg/injection, schedule: Q07DX003 (sc), vehicle: saline) 90 % of control and 93 % of control; (dose: 800.0 mg/kg/injection, schedule: Q07DX003 (sc), vehicle: saline) 88 % of control.

Turning to `Nc1cc(C(=O)Nc2ccc(C3=NCCN3)cc2)ccc1C(=O)Nc1ccc(C2=NCCN2)cc1`, the T/C (dose: 1.0 mg/kg/injection, schedule: Q01DX Z (iv), vehicle: water) was 100 % of control; the T/C (dose: 2.0 mg/kg/injection, schedule: Q01DX Z (iv), vehicle: water) was 100 % of control; the T/C (dose: 2.0 mg/kg/injection, schedule: Q01DX Z (sc), vehicle: water) is 110 % of control; the T/C (dose: 4.0 mg/kg/injection, schedule: Q01DX Z (iv), vehicle: water) was 120 % of control; the T/C (dose: 4.0 mg/kg/injection, schedule: Q01DX Z (sc), vehicle: water) was 215 % of control; the T/C (dose: 8.0 mg/kg/injection, schedule: Q01DX Z (iv), vehicle: water) was 215 % of control. Moreover, the T/C runs as follows: (dose: 8.0 mg/kg/injection, schedule: Q01DX Z (sc), vehicle: water) 230 % of control; (dose: 16.0 mg/kg/injection, schedule: Q01DX Z (iv), vehicle: water) 215 % of control; (dose: 16.0 mg/kg/injection, schedule: Q01DX Z (sc), vehicle: water) 245 % of control; (dose: 32.0 mg/kg/injection, schedule: Q01DX Z (sc), vehicle: water) 195 % of control.

Values taken from PubChem BioAssay AID250 (DTP/NCI, 2004).
